SMILES strings stand for the structures. Bridge positions count the residues as written; N and C are the ends. Square brackets hold non-standard residues; d marks the D form. Peptide text beside a SMILES is read from it. * marks the point of attachment. Trp(6-Cl) = N[C@@H](Cc1c[nH]c2cc(Cl)ccc12)C(=O)O; R8 = C=CCCCCCC[C@@](C)(N)C(=O)O; S5 = C=CCCC[C@](C)(N)C(=O)O; X1 = COCCOCCOCCOC(=O)*; Ac3c = NC1(C(=O)O)CC1

For eight compounds, IC50 results are on record in patent US9957299B2, “Peptidomimetic macrocycles” (AILERON THERAPEUTICS, INC., priority 2010, dated 2018).

One assay concerns the target HDMx (Homo sapiens, UniProt O15151). The assay can be described thus: FP Competition Blinding Assay | HDMx IC50 (nM).
The next assay concerns the target HDM2 (Homo sapiens, UniProt Q00987). The assay can be described thus: FP Competition Blinding Assay | HDM2 IC50 (nM).

Chain of HDMx (O15151 whole entry, looked up): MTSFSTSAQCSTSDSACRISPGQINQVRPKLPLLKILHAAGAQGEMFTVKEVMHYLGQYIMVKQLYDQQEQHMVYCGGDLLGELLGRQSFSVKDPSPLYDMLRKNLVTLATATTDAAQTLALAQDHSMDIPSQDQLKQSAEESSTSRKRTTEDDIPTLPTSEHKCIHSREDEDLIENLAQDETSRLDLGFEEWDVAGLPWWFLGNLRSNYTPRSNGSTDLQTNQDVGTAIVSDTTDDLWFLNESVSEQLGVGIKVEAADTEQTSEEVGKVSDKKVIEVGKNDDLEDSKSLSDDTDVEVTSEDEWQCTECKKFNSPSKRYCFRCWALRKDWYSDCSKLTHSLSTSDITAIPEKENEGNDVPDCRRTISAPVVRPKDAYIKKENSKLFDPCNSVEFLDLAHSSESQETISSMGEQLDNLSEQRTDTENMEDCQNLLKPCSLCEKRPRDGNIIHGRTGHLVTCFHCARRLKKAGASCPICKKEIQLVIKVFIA
Chain of HDM2 (Q00987 whole entry, looked up): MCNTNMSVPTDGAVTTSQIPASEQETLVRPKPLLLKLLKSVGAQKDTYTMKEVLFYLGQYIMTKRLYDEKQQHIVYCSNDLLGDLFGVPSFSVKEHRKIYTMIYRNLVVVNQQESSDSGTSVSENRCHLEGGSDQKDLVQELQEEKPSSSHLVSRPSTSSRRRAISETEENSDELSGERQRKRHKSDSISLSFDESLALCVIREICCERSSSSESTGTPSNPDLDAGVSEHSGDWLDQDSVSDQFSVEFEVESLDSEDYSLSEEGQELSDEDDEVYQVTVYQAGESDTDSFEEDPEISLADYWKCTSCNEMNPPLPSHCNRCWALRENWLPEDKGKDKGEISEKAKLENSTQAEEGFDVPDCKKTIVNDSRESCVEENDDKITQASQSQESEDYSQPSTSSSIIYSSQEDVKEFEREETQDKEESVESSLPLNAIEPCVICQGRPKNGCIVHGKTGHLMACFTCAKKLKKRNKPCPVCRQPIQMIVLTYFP

As for `CC(=O)N[C@@H](Cc1ccccc1)C(=O)N[C@]1(C)CCCCCCC=CCCC[C@@](C)(C(=O)N[C@@H](C)C(N)=O)NC(=O)[C@H](CC(C)C)NC(=O)C2(CC2)NC(=O)[C@H](CCC(=O)O)NC(=O)[C@H](Cc2c[nH]c3cc(Cl)ccc23)NC(=O)[C@H](Cc2ccc(O)cc2)NC(=O)[C@H](C)NC1=O` [SP-128, Ac- F $r8 A Y 6clW E Ac3c L $ A -NH2] (Ac-F[R8]AY[Trp(6-Cl)]E[Ac3c]L[S5]A-NH2; staple 2-9), on HDMx, the IC50 (as a rule, the concentration needed to halve the response being measured) came to 967 nM.

For the compound `CC(=O)N[C@@H](CC(C)C)C(=O)N[C@H](C(=O)N[C@@H](Cc1ccccc1)C(=O)N[C@]1(C)CCCCCCC=CCCC[C@@](C)(C(=O)N[C@@H](CO)C(N)=O)NC(=O)[C@H](CC(C)C)NC(=O)[C@H](CCC(N)=O)NC(=O)[C@H](C)NC(=O)[C@H](Cc2c[nH]c3ccccc23)NC(=O)[C@H](Cc2ccc(O)cc2)NC(=O)[C@H](C)NC1=O)[C@@H](C)O` [SP-191, Ac- L T F $r8 A Y W A Q L $ S -NH2] (Ac-LTF[R8]AYWAQL[S5]S-NH2; staple 4-11), the figures for the IC50 at HDMx and at HDM2 were 97 nM and 74.9 nM, respectively.

As for `CC(=O)N[C@@H](CC(C)C)C(=O)N[C@H](C(=O)N[C@@H](Cc1ccccc1)C(=O)N[C@]1(C)CCCCCCC=CCCC[C@@](C)(C(=O)N[C@@H](C)C(N)=O)NC(=O)[C@H](CC(C)C)NC(=O)[C@H](CCC(N)=O)NC(=O)[C@H](C)NC(=O)[C@H](Cc2c[nH]c3ccccc23)NC(=O)[C@H](Cc2ccc(O)cc2)NC(=O)[C@H](C)NC1=O)[C@@H](C)O` [SP-194, Ac- L T F $r8 A Y W A Q L $ A -NH2] (Ac-LTF[R8]AYWAQL[S5]A-NH2; staple 4-11), the IC50 at HDMx came out at 463 nM. Regarding `CC(=O)N[C@@H](CC(C)C)C(=O)N[C@H](C(=O)N[C@@H](Cc1ccccc1)C(=O)N[C@]1(C)CCCCCCC=CCCC[C@@](C)(C(=O)N[C@@H](CO)C(N)=O)NC(=O)[C@H](CC(C)C)NC(=O)[C@H](CCC(N)=O)NC(=O)[C@H](C)NC(=O)[C@H](Cc2c[nH]c3ccccc23)NC(=O)[C@H](Cc2ccc(O)cc2)NC(=O)[C@H](C(C)C)NC1=O)[C@@H](C)O` [SP-266, Ac- L T F $r8 V Y W A Q L $ S -NH2] (Ac-LTF[R8]VYWAQL[S5]S-NH2; staple 4-11), at HDM2, the IC50 came out at 66 nM. Take `CC(=O)N[C@@H](CC(C)C)C(=O)N[C@H](C(=O)N[C@@H](Cc1ccccc1)C(=O)N[C@]1(C)CCCCCCC=CCCC[C@@](C)(C(=O)N[C@@H](CO)C(N)=O)NC(=O)[C@H](CC(C)C)NC(=O)[C@H](CCC(N)=O)NC(=O)[C@H](C)NC(=O)[C@H](Cc2c[nH]c3ccccc23)NC(=O)[C@H](Cc2ccc(O)cc2)NC(=O)[C@H](Cc2ccccc2)NC1=O)[C@@H](C)O` [SP-267, Ac- L T F $r8 F Y W A Q L $ S -NH2] (Ac-LTF[R8]FYWAQL[S5]S-NH2; staple 4-11): the IC50 at HDMx was 318 nM. On to `CC(=O)N[C@@H](CC(C)C)C(=O)N[C@H](C(=O)N[C@@H](Cc1ccccc1)C(=O)N[C@]1(C)CCCCCCC=CCCC[C@@](C)(C(=O)N[C@@H](CO)C(N)=O)NC(=O)[C@H](CC(C)C)NC(=O)[C@H](CCC(N)=O)NC(=O)[C@H](CO)NC(=O)[C@H](Cc2c[nH]c3ccccc23)NC(=O)[C@H](Cc2ccc(O)cc2)NC(=O)[C@H](C)NC1=O)[C@@H](C)O` [SP-360, Ac- L T F $r8 A Y W S Q L $ S -NH2] (Ac-LTF[R8]AYWSQL[S5]S-NH2; staple 4-11), for which the IC50 at HDM2 amounted to 90 nM. On HDM2, `CC(=O)N[C@@H](CC(C)C)C(=O)N[C@H](C(=O)N[C@@H](Cc1ccccc1)C(=O)N[C@]1(C)CCCCCCC=CCCC[C@@](C)(C(=O)N[C@@H](CO)C(N)=O)NC(=O)[C@H](CC(C)C)NC(=O)[C@H](CCC(N)=O)NC(=O)[C@H](C)NC(=O)[C@H](Cc2c[nH]c3ccccc23)NC(=O)[C@H](Cc2ccc(O)cc2)NC(=O)[C@H](CCC(=O)O)NC1=O)[C@@H](C)O` [SP-512, Ac- L T F $r8 E Y W A Q F $ S -NH2] (Ac-LTF[R8]EYWAQL[S5]S-NH2; staple 4-11) displayed an IC50 of 16.2 nM. With `COCCOCCOCCOC(=O)N[C@@H](CC(C)C)C(=O)N[C@H](C(=O)N[C@@H](Cc1ccccc1)C(=O)N[C@]1(C)CCCCCCC=CCCC[C@@](C)(C(=O)N[C@@H](CO)C(N)=O)NC(=O)[C@H](CC(C)C)NC(=O)[C@H](CCC(N)=O)NC(=O)[C@H](C)NC(=O)[C@H](Cc2c[nH]c3ccccc23)NC(=O)[C@H](Cc2ccc(O)cc2)NC(=O)[C@H](C)NC1=O)[C@@H](C)O` [SP-580, mdPEG3-L T F $r8 A Y W A Q L $ S -NH2] (X1-LTF[R8]AYWAQL[S5]S-NH2; staple 4-11), the 50% inhibitory concentration (IC50) on HDMx was 195 nM; on HDM2, 81 nM.
